Numbered stars: 1 amine (or outer) side, 2 acyl side, 3 side chain; on linkers, the order of the positions; unused ones are H or OH. Peptide text beside a SMILES is read from it. * marks the point of attachment. C20 diacid = O=C(O)CCCCCCCCCCCCCCCCCCC(=O)*; γGlu = O=C(O)[C@H](CCC(=O)[*:2])N[*:1]; AEEA = NCCOCCOCC(=O)O
Assays:
[1] = target: T1, Amylin receptor AMY3; CALCR/RAMP3 (Homo sapiens, UniProt O60896+P30988); assay: Agonist activity at human amylin receptor expressed in BHK570 cells co-expressing RAMP3 assessed as increase in intracellular cAMP concentration incubated for 3 hrs in absence of albumin by CRE luciferase reporter gene assay; assay type: functional, cell-based
T1 sequence (P30988 whole entry): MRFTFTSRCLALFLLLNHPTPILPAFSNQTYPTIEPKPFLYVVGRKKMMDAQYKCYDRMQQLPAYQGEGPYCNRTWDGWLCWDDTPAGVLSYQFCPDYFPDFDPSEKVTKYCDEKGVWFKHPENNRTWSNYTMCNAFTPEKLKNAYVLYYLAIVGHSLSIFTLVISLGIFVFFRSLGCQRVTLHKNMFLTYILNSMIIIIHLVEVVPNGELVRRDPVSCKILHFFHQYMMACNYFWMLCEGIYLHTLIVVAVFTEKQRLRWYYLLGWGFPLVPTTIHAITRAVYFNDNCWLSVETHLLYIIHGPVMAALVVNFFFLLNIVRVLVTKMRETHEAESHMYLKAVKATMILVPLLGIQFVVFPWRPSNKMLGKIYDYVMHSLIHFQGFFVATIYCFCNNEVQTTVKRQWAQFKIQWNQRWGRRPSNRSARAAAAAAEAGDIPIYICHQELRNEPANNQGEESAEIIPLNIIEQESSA
T1 sequence (O60896 whole entry): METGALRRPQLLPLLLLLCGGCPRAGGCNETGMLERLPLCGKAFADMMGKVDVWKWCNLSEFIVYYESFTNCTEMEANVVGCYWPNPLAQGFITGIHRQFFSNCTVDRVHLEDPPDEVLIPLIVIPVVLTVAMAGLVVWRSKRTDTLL

Rattus norvegicus = assay: Reduction in food intake in Sprague-Dawley rat at 3 nmol/kg measured 24 to 48 hrs post dose relative to control; assay type: functional; design: scale not given: the % may be the effect or the level left
[2] = Stability in pH 7.5 buffer assessed as compound recovery at 1 uM by Thioflavin T based fluorescence assay; assay type: physicochemical; details: read-out: Drug recovery
[3] = target: T1, Amylin receptor AMY3; CALCR/RAMP3; assay: Agonist activity at human amylin receptor expressed in BHK570 cells co-expressing RAMP3 assessed as increase in intracellular cAMP concentration incubated for 3 hrs in presence of 10% FBS by CRE luciferase reporter gene assay; assay type: functional, cell-based
Calcitonin receptor [4] = target: T2, Calcitonin receptor (Homo sapiens, UniProt P30988); assay: Agonist activity at human calcitonin receptor expressed in BHK570 cells assessed as increase in intracellular cAMP concentration incubated for 3 hrs in absence of albumin by CRE luciferase reporter gene assay; assay type: functional, cell-based
T2 sequence (P30988 whole entry): T1 sequence (P30988 whole entry)

[5] = Solubility in 100 mM glycylglycine buffer at pH 3.0 incubated for 18 hrs by UPLC analysis; assay type: physicochemical
Calcitonin receptor [6] = target: T2, Calcitonin receptor; assay: Agonist activity at human calcitonin receptor expressed in BHK570 cells assessed as increase in intracellular cAMP concentration incubated for 3 hrs in presence of 10% FBS by CRE luciferase reporter gene assay; assay type: functional, cell-based
[7] = Stability in pH 7.5 buffer assessed as lag time for fibril formation at 1 uM by Thioflavin T based fluorescence assay; assay type: physicochemical; details: pH 7.5, 1 µM
[8] = Solubility in 100 mM bistrispropane buffer at pH 7.5 incubated for 18 hrs by UPLC analysis; assay type: physicochemical
[9] = Solubility in 100 mM bistrispropane buffer at pH 7.0 incubated for 18 hrs by UPLC analysis; assay type: physicochemical
[10] = Solubility in 100 mM bistrispropane buffer at pH 6.0 incubated for 18 hrs by UPLC analysis; assay type: physicochemical
[11] = Solubility in 100 mM glycylglycine buffer at pH 5.0 incubated for 18 hrs by UPLC analysis; assay type: physicochemical
[12] = Solubility in 100 mM bistrispropane buffer at pH 8.0 incubated for 18 hrs by UPLC analysis; assay type: physicochemical
[13] = Solubility in 100 mM glycylglycine buffer at pH 4.0 incubated for 18 hrs by UPLC analysis; assay type: physicochemical
[14] = Solubility in 100 mM bistrispropane buffer at pH 6.5 incubated for 18 hrs by UPLC analysis; assay type: physicochemical
[15] = target: T1, Amylin receptor AMY3; CALCR/RAMP3; assay: Displacement of [125I]-labeled rat amylin from human amylin receptor expressed in BHK tkts13 whole cells co-expressing RAMP3 incubated for 60 mins by scintillation proximity assay; assay type: cell-based

Row | SMILES | EC50 [1] [nM] | Activity (Rattus norvegicus) [%] | remaining at 1 µM [2] [%] | EC50 [3] [nM] | EC50 (Calcitonin receptor [4]) [nM] | solubility at 18 h [5] [µM] | EC50 (Calcitonin receptor [6]) [nM] | Time [7] [h] | solubility at 18 h [8] [µM] | solubility at 18 h [9] [µM] | solubility at 18 h [10] [µM] | solubility at 18 h [11] [µM] | solubility at 18 h [12] [µM] | solubility at 18 h [13] [µM] | solubility at 18 h [14] [µM] | IC50 [15] [nM]
1 | CC(C)C[C@H](NC(=O)CNC(=O)[C@H](CO)NC(=O)[C@H](C)NC(=O)CC[C@H](NC(=O)CCCCCCCCCCCCCCCCCCC(=O)O)C(=O)O)C(=O)N[C@@H](CO)C(=O)N[C@H](C(=O)N[C@@H](C)C(=O)N[C@H](C(=O)N[C@@H](CC(C)C)C(=O)NCC(=O)N[C@@H](CCCNC(=N)N)C(=O)N[C@@H](CC(C)C)C(=O)N[C@@H](CO)C(=O)N[C@@H](CCC(N)=O)C(=O)N[C@@H](CCC(=O)O)C(=O)N[C@@H](CC(C)C)C(=O)N[C@@H](Cc1cnc[nH]1)C(=O)N[C@@H](CCC(=O)O)C(=O)N[C@@H](CC(C)C)C(=O)N[C@@H](CCC(N)=O)C(=O)N[C@H](C(=O)N[C@@H](Cc1ccc(O)cc1)C(=O)N1CCC[C@H]1C(=O)N[C@@H](CCCNC(=N)N)C(=O)N[C@H](C(=O)N[C@@H](CCC(=O)O)C(=O)N[C@H](C(=O)NCC(=O)N[C@@H](CO)C(=O)NCC(=O)N[C@H](C(=O)N[C@@H](Cc1ccc(O)cc1)C(N)=O)[C@@H](C)O)[C@@H](C)O)[C@@H](C)O)[C@@H](C)O)C(C)C)[C@@H](C)O | 0.057 | 15 | 23 | 0.105 | 0.065 | ≥ 200 | 0.054 | 0 |  |  |  |  |  |  |  | 
2 | CC(C)C[C@H](NC(=O)[C@H](C)NC(=O)[C@H](C)NC(=O)[C@@H](NC(=O)[C@H](CO)NC(=O)[C@H](CC(C)C)NC(=O)[C@H](CCC(=O)O)NC(=O)[C@H](CO)NC(=O)[C@H](C)NC(=O)COCCOCCNC(=O)COCCOCCNC(=O)COCCOCCNC(=O)COCCOCCNC(=O)COCCOCCNC(=O)CC[C@H](NC(=O)CCCCCCCCCCCCCCCCCCC(=O)O)C(=O)O)[C@@H](C)O)C(=O)NCC(=O)N[C@@H](CCCNC(=N)N)C(=O)N[C@@H](CC(C)C)C(=O)N[C@@H](CO)C(=O)N[C@@H](C)C(=O)N[C@@H](CCC(=O)O)C(=O)N[C@@H](CC(C)C)C(=O)N[C@@H](Cc1cnc[nH]1)C(=O)N[C@@H](CCC(=O)O)C(=O)N[C@@H](CC(C)C)C(=O)N[C@@H](C)C(=O)N[C@H](C(=O)N[C@@H](CC(C)C)C(=O)N1CCC[C@H]1C(=O)N[C@@H](CCCNC(=N)N)C(=O)N[C@H](C(=O)N[C@@H](CCC(=O)O)C(=O)N[C@H](C(=O)NCC(=O)N[C@@H](CO)C(=O)NCC(=O)N[C@@H](CO)C(=O)N1CCC[C@H]1C(N)=O)[C@@H](C)O)[C@@H](C)O)[C@@H](C)O ({C20 diacid-γGlu-AEEA-AEEA-AEEA-AEEA-AEEA}-ASELSTAALGRLSAELHELATLPRTETGSGSP-NH2) | 0.015 |  | 100 | 0.066 | 0.01 | ≥ 200 | 0.027 | > 45 | ≥ 200 | ≥ 200 | ≥ 200 | ≥ 200 | ≥ 200 | ≥ 200 | ≥ 200 | 
3 | CC(C)C[C@H](NC(=O)[C@H](C)NC(=O)[C@H](C)NC(=O)[C@@H](NC(=O)[C@H](CO)NC(=O)[C@H](CC(C)C)NC(=O)[C@H](CCC(=O)O)NC(=O)[C@H](CO)NC(=O)[C@H](C)NC(=O)CC[C@H](NC(=O)CCCCCCCCCCCCCCCCCCC(=O)O)C(=O)O)[C@@H](C)O)C(=O)NCC(=O)N[C@@H](CCCCN)C(=O)N[C@@H](CC(C)C)C(=O)N[C@@H](CO)C(=O)N[C@@H](C)C(=O)N[C@@H](CCC(=O)O)C(=O)N[C@@H](CC(C)C)C(=O)N[C@@H](Cc1cnc[nH]1)C(=O)N[C@@H](CCC(=O)O)C(=O)N[C@@H](CC(C)C)C(=O)N[C@@H](C)C(=O)N[C@H](C(=O)N[C@@H](Cc1ccc(O)cc1)C(=O)N1CCC[C@H]1C(=O)N[C@@H](CCCCN)C(=O)N[C@H](C(=O)N[C@@H](CCC(=O)O)C(=O)N[C@H](C(=O)NCC(=O)N[C@@H](CO)C(=O)NCC(=O)N[C@@H](CO)C(=O)N[C@@H](Cc1ccc(O)cc1)C(N)=O)[C@@H](C)O)[C@@H](C)O)[C@@H](C)O ({C20 diacid-γGlu}-ASELSTAALGKLSAELHELATYPKTETGSGSY-NH2) | 0.051 |  | 100 | 0.093 | 0.037 | ≥ 200 | 0.073 | 0 | ≥ 200 | ≥ 200 | ≥ 200 | ≥ 200 | ≥ 200 | ≥ 200 | ≥ 200 | 0.588
4 | CC(C)C[C@H](NC(=O)[C@H](C)NC(=O)[C@H](C)NC(=O)[C@@H](NC(=O)[C@H](CO)NC(=O)[C@H](CC(C)C)NC(=O)[C@H](CCC(=O)O)NC(=O)[C@H](CO)NC(=O)[C@H](C)NC(=O)CC[C@H](NC(=O)CCCCCCCCCCCCCCCCCCC(=O)O)C(=O)O)[C@@H](C)O)C(=O)NCC(=O)N[C@@H](CCCNC(=N)N)C(=O)N[C@@H](CC(C)C)C(=O)N[C@@H](CO)C(=O)N[C@@H](C)C(=O)N[C@@H](CCC(=O)O)C(=O)N[C@@H](CC(C)C)C(=O)N[C@@H](Cc1cnc[nH]1)C(=O)N[C@@H](CCC(=O)O)C(=O)N[C@@H](CC(C)C)C(=O)N[C@@H](C)C(=O)N[C@H](C(=O)N[C@@H](CC(C)C)C(=O)N1CCC[C@H]1C(=O)N[C@@H](CCCNC(=N)N)C(=O)N[C@H](C(=O)N[C@@H](CCC(=O)O)C(=O)N[C@H](C(=O)NCC(=O)N[C@@H](CO)C(=O)NCC(=O)N[C@@H](CO)C(=O)N[C@@H](Cc1ccccc1)C(N)=O)[C@@H](C)O)[C@@H](C)O)[C@@H](C)O ({C20 diacid-γGlu}-ASELSTAALGRLSAELHELATLPRTETGSGSF-NH2) | 0.05 |  | 100 | 0.094 | 0.04 | ≥ 200 | 0.073 | > 45 | ≥ 200 | ≥ 200 | ≥ 200 |  | ≥ 200 | ≥ 200 | ≥ 200 | 1.36
5 | CC(C)C[C@H](NC(=O)[C@H](C)NC(=O)[C@H](C)NC(=O)[C@@H](NC(=O)[C@H](CO)NC(=O)[C@H](CC(C)C)NC(=O)[C@H](CCC(=O)O)NC(=O)[C@H](CO)NC(=O)[C@H](C)NC(=O)CC[C@H](NC(=O)CCCCCCCCCCCCCCCCCCC(=O)O)C(=O)O)[C@@H](C)O)C(=O)NCC(=O)N[C@@H](CCCNC(=N)N)C(=O)N[C@@H](CC(C)C)C(=O)N[C@@H](CO)C(=O)N[C@@H](C)C(=O)N[C@@H](CCC(=O)O)C(=O)N[C@@H](CC(C)C)C(=O)N[C@@H](Cc1cnc[nH]1)C(=O)N[C@@H](CCC(=O)O)C(=O)N[C@@H](CC(C)C)C(=O)N[C@@H](C)C(=O)N[C@H](C(=O)N[C@@H](CC(C)C)C(=O)N1CCC[C@H]1C(=O)N[C@@H](CCCNC(=N)N)C(=O)N[C@H](C(=O)N[C@@H](CCC(=O)O)C(=O)N[C@H](C(=O)NCC(=O)N[C@@H](CO)C(=O)NCC(=O)N[C@@H](CO)C(=O)NCC(N)=O)[C@@H](C)O)[C@@H](C)O)[C@@H](C)O ({C20 diacid-γGlu}-ASELSTAALGRLSAELHELATLPRTETGSGSG-NH2) | 0.142 |  | 100 | 0.435 | 0.066 | ≥ 200 | 0.239 | > 45 | ≥ 200 | ≥ 200 | ≥ 200 | ≥ 200 | ≥ 200 | ≥ 200 | ≥ 200 | 4.36

Reference: ChEMBL document CHEMBL4420076, “Amylin and calcitonin receptor agonist” (2017)
